Experimental data taken from patent US6339070B1, “Gene construct encoding a heterologous prodrug-activating enzyme and a cell targeting moiety” (Zeneca Limited, priority 1997, dated 2002).

T1: CEA on LoVo colorectal tumour cells (CEA positive) (human, UniProt P06731 35-685, GPI anchor on the C-terminal residue; heavily N-glycosylated on cells)
T1 construct: also called CEA positive LoVo cells; LoVo, CEA bearing, tumour cells
T1 sequence: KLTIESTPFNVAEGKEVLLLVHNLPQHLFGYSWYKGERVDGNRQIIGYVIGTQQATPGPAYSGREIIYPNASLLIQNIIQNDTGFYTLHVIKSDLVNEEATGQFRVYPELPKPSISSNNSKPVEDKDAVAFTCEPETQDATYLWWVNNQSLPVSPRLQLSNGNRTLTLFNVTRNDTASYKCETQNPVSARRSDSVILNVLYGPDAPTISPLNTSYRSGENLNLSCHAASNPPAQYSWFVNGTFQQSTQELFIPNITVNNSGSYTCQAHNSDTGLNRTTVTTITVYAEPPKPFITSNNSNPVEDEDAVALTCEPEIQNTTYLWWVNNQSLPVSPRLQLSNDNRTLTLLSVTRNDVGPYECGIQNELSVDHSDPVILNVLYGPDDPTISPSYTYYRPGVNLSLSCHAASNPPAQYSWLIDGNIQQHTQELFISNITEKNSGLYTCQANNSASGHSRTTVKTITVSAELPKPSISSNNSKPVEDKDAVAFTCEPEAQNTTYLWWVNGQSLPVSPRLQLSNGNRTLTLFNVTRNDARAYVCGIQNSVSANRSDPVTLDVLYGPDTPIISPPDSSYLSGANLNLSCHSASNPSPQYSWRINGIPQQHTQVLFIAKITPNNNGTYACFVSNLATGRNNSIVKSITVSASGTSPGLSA

T2: human carcinoembryonic antigen (CEA) (human, UniProt P06731 35-685, limits assumed)
T2 construct: CEA as coated on the ELISA plate; also called Carcinoma Embryonic Antigen
T2 sequence (looked up): T1 sequence

B1: (A5B7 Fab-CPG2)2 fusion protein (other)
heavy: EVKLVESGGGLVQPGGSLRLSCATSGFTFTDYYMNWVRQPPGKALEWLGFIGNKANGYTTEYSASVKGRFTISRDKSQSILYLQMNTLRAEDSATYYCTRDRGLRFYFDYWGQGTTLTVSSASTKGPSVFPLAPCSRSTSESTAALGCLVKDYFPEPVTVSWNSGALTSGVHTFPAVLQSSGLYSLSSVVTVPSSNFGTQTYTCNVDHKPSNTKVDKTVGGGGSGGGGSGGGGSQKRDNVLFQAATDEQPAVIKTLEKLVNIETGTGDAEGIAAAGNFLEAELKNLGFTVTRSKSAGLVVGDNIVGKIKGRGGKNLLLMSHMDTVYLKGILAKAPFRVEGDKAYGPGIADDKGGNAVILHTLKLLKEYGVRDYGTITVLFNTDEEKGSFGSRDLIQEEAKLADYVLSFEPTSAGDEKLSLGTSGIAYVQVQITGKASHAGAAPELGVNALVEASDLVLRTMNIDDKAKNLRFQWTIAKAGQVSNIIPASATLNADVRYARNEDFDAAMKTLEERAQQKKLPEADVKVIVTRGRPAFNAGEGGKKLVDKAVAYYKEAGGTLGVEERTGGGTDAAYAALSGKPVIESLGLPGFGYHSDKAEYVDISAIPRRLYMAARLIMDLGAGK
light: QTVLSQSPAILSASPGEKVTMTCRASSSVTYIHWYQQKPGSSPKSWIYATSNLASGVPARFSGSGSGTSYSLTISRVEAEDAATYYCQHWSSKPPTFGGGTKLEIKRTVAAPSVFIFPPSDEQLKSGTASVVCLLNNFYPREAKVQWKVDNALQSGNSQESVTEQDSKDSTYSLSSTLTLSKADYEKHKVYACEVTHQGLSSPVTKSFNRGEC
notes: Two Fab-CPG2 units dimerise non-covalently through CPG2 (about 180 kDa); Tested as cell culture supernatant (COS-7 or recombinant Colo320DM / LoVo cells); also called (A5B7-CPG2 R6)2 fusion protein; (A5B7-CPG2)2 fusion protein

Experiments:
[1] = tested on: HCT116 tumours established from non-transfected cells; experiment: Anti-tumour activity in HCT116 tumours from non-transfected cells; assay type: in vivo, athymic nude mice; settings: PGP i.p., 3 doses at hourly intervals, 5-25 mg kg^-1
Procedure: (§1) HCT116 tumour cells transfected with the antibody-CPG2 fusion protein gene or control non-transfected HCT116 tumour cells are injected subcutaneously into athymic nude mice (10^7 tumour cells per mouse). When the turnours are 5-7 mm in diameter the PGP prodrug is administered i.p. to the mice (3 doses at hourly intervals over 2 h in dose ranges of 5-25 mg kg^−1). The anti-tumour effects are judged by measuring the length of the tumours in two directions and calculating the tumour volume using the formula: […]
(§2) where D is the larger diameter and d is the smaller diameter of the tumour.
(§3) Tumour volume is expressed relative to the tumour volume at the time the PGP prodrug is administered. The anti-tumour activity is compared to a control group receiving either transfected or non-transfected tumour cells and PBS ([…], 3.4 mM KCl, 12 mM Na2HPO4 and 1.8 mM KH2PO4, pH 7.2) instead of the PGP prodrug.

[2] = tested on: HCT116 cells transfected with the antibody-CPG2 fusion protein gene; assay type: cell-based
[3] = tested on: established LoVo tumours produced from non-transfected parental LoVo cells; experiment: Anti-tumour activity, fusion gene vector injected intra-tumourally into established LoVo tumours, then PGP; assay type: in vivo, athymic nude mice; settings: PGP after 1-3 days, vs controls
Procedure: (§4) Thus non-transfected LoVo cells are injected into athymic nude mice (1×10^7 tumour cells per mouse) and once the tumours are 5-7 mm in diameter the vector containing the antibody-enzyme fusion protein gene is injected intra-tumourally. After 1-3 days to allow the antibody-enzyme fusion protein to be expressed by, and bind to, the LoVo tumour cells, the PGP prodrug is administered as described above.

[4] = tested on: LoVo tumours established from recombinant LoVo cells or recombinant Lovo/Parental LoVo cell mixes; experiment: Anti-tumour activity in LoVo tumours expressing the antibody-CPG2 fusion protein; assay type: in vivo, athymic nude mice
Procedure: (§5) Recombinant LoVo (A5B7-CPG2)2 fusion protein expressing tumour cells or mixes of recombinant and parental LoVo cells were injected subcutaneously into athymic nude mice as described in Example 9.
(§6) When the tumours are 5-7 mm in diameter the PGP prodrug is administered i.p. to the mice (3 doses in DMSO/0.15 M sodium bicarbonate buffer at hourly intervals over 2 h in dose ranges of 40-80 mg kg^−1).
(§7) Anti-tumour effects are judged by measuring the length of the tumours in two directions and calculating the tumour volume using the formula
(§8) where D is the larger diameter and d is the smaller diameter of the tumour. Tumour volume may be expressed relative to the tumour volume at the time the PGP prodrug is administered or alternatively the median tumouT volumes may be calculated. The anti-tumour activity is compared to control groups receiving either transfected or non-transfected tumour cells and buffer without PGP prodrug.

[5] = tested on: non-transfected HCT116 cells; assay type: cell-based; settings: read-out: IC50 (concentration required to inhibit cell growth by 50%)
[6] = tested on: established HCT116 tumours produced from non-transfected HCT116 cells; experiment: Anti-tumour activity, fusion gene vector injected intra-tumourally into established HCT116 tumours, then PGP; assay type: in vivo, athymic nude mice; settings: PGP after 1-3 days, vs PBS
Procedure: as §4, with “HCT116” for “LoVo”, “by” for “by,”, “to” for “to,”

[7] = tested on: HCT116 tumours established from transfected HCT116 cells; experiment: Anti-tumour activity in HCT116 tumours from transfected cells; assay type: in vivo, athymic nude mice; settings: PGP i.p., 3 doses at hourly intervals, 5-25 mg kg^-1, vs PBS
Procedure: as §1, §2, §3

[8] = tested on: LoVo tumours established from non-transfected cells; experiment: Anti-tumour activity in LoVo tumours from non-transfected cells; assay type: in vivo, athymic nude mice; settings: PGP i.p., 3 doses at hourly intervals, 40-80 mg kg^-1
Procedure: as §5, §6, §7, §8

[9] = tested on: LoVo cells transfected with an antibody-CPG2 fusion protein gene; experiment: In vitro prodrug killing, LoVo cells transfected with antibody-CPG2 fusion protein gene; assay type: cell-based
[10] = tested on: non-transfected LoVo cells; experiment: In vitro prodrug killing, non-transfected LoVo cells; assay type: cell-based
[11] = target: T1, CEA on LoVo colorectal tumour cells …; experiment: cell based ELISA on fixed cells, anti-human kappa HRP detection, OD 490 nm
Procedure: 100 µl of 6% formaldehyde was diluted in DMEM and left for 1 hour at 4°. Plates were centrifuged and washed 3 times in PBS containing 0.05% Tween™ by immersion soaking (first two washes for 2 minutes and the final wash for 5 minutes).
Colour was allowed to develop for about 5 min, stopped with 75 μl per well of 2M H_2SO_4 and OD read at 490 nm.

[12] = target: T2, human carcinoembryonic antigen (CEA); experiment: CEA ELISA, COS-7 supernatant, anti-human kappa or anti-CPG2 reporter antibody
Procedure: For the CEA ELISA each well of a 96 well immunoplate (NUNC MAXISORB™) was coated with 50 ng CEA in 50 mM carbonate/bicarbonate coating buffer pH9.6 (buffer capsules—Sigma C3041) and incubated at 4° overnight. The plate was washed three times with PBS-TWEEN™ (PBS+ 0.05% TWEEN™ 20) and then blocked 150 μl per well of 1% BSA in PBS-TWEEN™ for 1 hour at room temperature. The plate was washed three times with PBS-TWEEN™, 100 μl of test sample added per well and incubated at room temperature for 2 hours. […] The plate was washed three times with PBS-TWEEN™ and then once more with PBS. To detect binding, add 100 μl per well of developing solution (one capsule of phosphate-citrate buffer—Sigma P4922—dissolved in 100 ml H_2O to which is added one 30 mg tablet o-phenylenediamine dihydrochloride—Sigma P8412) and incubated for up to 15 minutes. The reaction was stopped by adding 75 μl 2M H_2SO_4, and absorbance read at 490 nm.
The CEA ELISA using an anti CPG2 reporter antibody was essentially as above but instead of HRPO-labelled goat anti-human kappa antibody an 1/1000 dil. of a rabbit anti-CPG2 polyclonal sera was added, in 1% BSA in PBS-TWEEN™ and incubated at room temperature on a rocking platform for at 2 hours. The plate was washed three times with PBS-TWEEN™. […] The reaction was stopped by adding 75 μl 2M H_2SO_4, and absorbance read at 490 nm.

binding result [11] | binding result [12] | Molecule | anti-tumour activity [1] | sensitivity of transfected compared to non-transfected HCT116 cells in terms of cell killing [2] | IC50 ([2]; read-out: IC50 (concentration required to inhibit cell growth by 50%)) [µM] | anti-tumour activity [3] | tumour growth delay ([4]; 60 mg/kg doses of prodrug, FIG. 5) [days] | median tumour volume relative to initial size ([4]; 60 mg/kg doses of prodrug, day 16 post-dose, FIG. 5) [times their initial size] | anti-tumour effect ([4]; PGP i.p., 3 doses at hourly intervals, 40-80 mg kg^-1, vs controls) | IC50 [5] [µM] | anti-tumour activity [6] | anti-tumour effect [7] | anti-tumour activity [8] | conversion of prodrug into active drug by cells ([9]; transfected LoVo cells) | sensitivity of transfected compared to non-transfected LoVo cells in terms of cell killing ([9]; transfected vs non-transfected LoVo) | conversion of prodrug into active drug by cells [10]
– | – | O=C(O)CC[C@H](NC(=O)Oc1ccc(N(CCCl)CCCl)cc1)C(=O)O [PGP, N-(4-[N,N-bis(2-chloroethyl)amino]-phenoxycarbonyl)-L-glutamic acid] | no significant anti-tumour activity | over 100 fold | ~1 | significant anti-tumour activity | ≥ 11 | 3 | significant anti-tumour effect | ~200 | significant anti-tumour activity | significant anti-tumour effect | no significant anti-tumour activity | can convert the PGP prodrug into the more potent active drug | over 100 fold | unable to convert the prodrug
binds | binds | B1 | – | – | – | – | – | – | – | – | – | – | – | – | – | –
